Reference: US20260248799A1, “COMBINATIONS OF RETINALDEHYDE DEHYDROGENASE 1 (RALDH1) INHIBITORS AND IMMUNOSTIMULATORS AND METHODS USING SAME” (The Trustees of the University of Pennsylvania, priority 2023, published 2026)
“Also recorded” adds a separate entry of the source. Like-named read-outs stand apart in the source and are kept apart here. Values belong to the compound of their own block, whether it stands above or below them.

Columns and labels:
[1] = mouse, in vivo
Method: Male CD1 or C57BL/6J mice between 6 and 8 weeks old and weighing approximately 20 to 30 grams were dosed with compound 86, compound 91, and compound 99 at 2 mg/kg (IV), 10 mg/kg (PO), and 10 or 30 mg/kg (IP). The compounds were formulated using a 20% hydroxypropyl-beta-cyclodextrin (HPbCD) solution in saline, was made on the day of dosing or directly prior to dosing. Each treatment group consisted of three mice, and plasma was collected at 5 minutes, 15 minutes, 30 minutes, 1 hour, 2 hours, 4 hours, 8 hours, 12 hours, and 24 hours post-dose for IV administration and at 15 minutes, 30 minutes, 1 hour, 2 hours, 4 hours, 8 hours, 12 hours, and 24 hours post-dose for PO administration. Approximately 0.025 mL of blood was collected from the dorsal metatarsal vein at each time point. […] Plasma samples were then stored in polypropylene tubes, quickly frozen, and kept at −75° C. until analyzed by LC/MS/MS. The following pharmacokinetic parameters were measured: Terminal half-life (T½), Concentration at immediately after injection (C0), Maximum concentration (Cmax), Time to reach max concentration (Tmax), Clearance (CL), Volume of distribution (Vd), Area under the curve (AUClast), and bioavailability (% F). Animals were also monitored during the in-life phase by once daily cage side observations; any adverse clinical signs were noted as part of the PK report.

[2] = tested on: murine HCC cell line (Hepa1-6); experiment: AldeRed assay in Hepa1-6 cells; type: cell-based, mouse
Method: Cultures of tumor cells or primary monocyte-derived cells were treated with C86, C91, C99, BMS 493 (Tocris, 3509) or Win 18446 (Tocris, 4736) at a time and concentration indicated in corresponding figure legends.
(§1) The AldeRed assay (EMD Millipore) was performed according to manufacturer's instructions to identify cells with ALDH activity. In brief, single-cell suspensions of Huh7, Huh1, SNU449, SNU398, HEP3B, PLC, Hepa 1-6, Hep55, and AL458A cultured cells or single-cell suspension generated from enzymatic digestion of tumors generated from transplantation of these cells in mice (as indicated in figure legends) were incubated with a fluorescent and non-toxic ALDH substrate (AldeRed 588-A); the fluorescent product accumulates in cells proportional to their ALDH activity. The amount of fluorescence produced is measured by flow cytometry. The ALDH inhibitor diethylaminobenzaldehyde (DEAB, provided with the AldeRed assay kit) was used as a negative control for background fluorescence assessment.

SNU398 cells [3] = experiment: RT-qPCR of Raldh1, Raldh2 and Raldh3 transcripts in SNU398 cells; type: cell-based, human; conditions: SNU398, 24 hours
Method: FIG. 21A: Transcript levels (RT-qPCR) of Raldh1, Raldh2 and Raldh3 in SNU398 cells treated with different concentrations of C86 or C91 for 24 hours. FIG. 21B: Homology modeling identifies differences in amino acid residues between human and murine RALDH1 at sites predicted to bind RALDH1-INH. FIG. 21C: SNU398 cells were treated with various concentrations of C86 or C91 for 24 hours. Cell viability was measured by flow cytometry (FCM) with 7-AAD staining (Y-axis indicates percentage of 7-AAD negative cells).
Total RNA from mouse tissue samples and in vitro cultured cells was isolated using GenElute Mammalian Total RNA Miniprep Kit (Sigma) following the manufacturer's protocol. Total RNA from human FFPE samples was isolated by using Quick-RNA FFPE Miniprep Kit (Zymo Research) using the manufacturer's protocol. 1000 ng of RNA was used for reverse transcription using High Capacity RNA to cDNA Kit (Life Technologies). The cDNA product was 10× diluted. 2.5 μL of this cDNA was used for qPCR for each sample. Three or more replicates were used for each reaction. […] Expression fold was calculated as 2^−(CT target gene−CT housekeeping gene). Quantitative PCRs were run on a Viia 7 real time PCR system (ThermoFisher). The following target and housekeeping genes were measured using the commercially available TaqMan probes (ThermoFisher): […]

[4] = Pharmacokinetics IV and PO in CD-1 mice, plasma; type: in vivo; conditions: mouse plasma
Excerpt: The PK studies were done at NIH or a commercial CRO—Pharmacon using their in-house standard protocol. […] For C99, IV and PO, performed at NIH using CD-1 mice; formulation: 20% HPbCD in saline.

SNU398 cells [5] = experiment: In vitro proliferation and viability of human HCC cell lines; type: cell-based
Method: FIG. 20D: LC-MS for ATRA on Hepa1-6 (mouse HCC cell line) or SNU398 (human HCC cell line). […] Two independent experiments were performed with at least three replicates per experimental group. Unpaired t test, two-tailed. *, P<0.05; **, P<0.01; ***, P<0.001. […] Cell proliferation was measured by counting live cell numbers at each time point. […] Cell proliferation was measured by counting live cell numbers at each time point.
Cell viability was measured by flow cytometry (FCM) with 7-AAD staining (Y-axis indicates percentage of 7-AAD negative cells).
1×10^4~2×10^5 of Huh7, Huh1, Hepa 1-6, and Hep55 tumor cells were plated in triplicate in 48-well plates or 6-well plates. Viable cell numbers were counted every day for three to four days.

SNU398 human HCC cells = experiment: AldeRed (Aldefluor) assay in SNU398 cells; type: cell-based
Method: as §1
The Aldefluor assay has been used to identify and isolate cells with high ALDH activities. This assay is based on the principle that ALDH can convert the ALDH-substrate, Bodipy-aminoacetaldehyde (BAAA) into Bodipy-aminoacetate (BAA) which is retained inside the cells. BAAA is uncharged and can diffuse freely into intact viable cells, however BAA cannot cross the membrane due to its net negative charge, which makes remain in the cells and the assay buffer prevents efflux of the BAA from the cells. Therefore, the amount of BAA fluorescence in cells is proportional to ALDH activity and can be measured using a flow cytometer. A specific inhibitor of ALDH, diethylaminobenzaldehyde (DEAB), is used for background fluorescence control.

[6] = tested on: murine fibrosarcoma (FS) cell line; experiment: FS murine fibrosarcoma in C57BL6/J mice; type: in vivo, mouse; conditions: 25 mg/kg everyday
Method: FIGS. 28A-28G: C99 inhibits murine RALDH1 and suppresses murine HCC growth. FIG. 28A: AldeRed assay was performed on Hepa1-6 (murine HCC, left graph) and SNU398 (human HCC, right graph) cells with or without different concentration of C99 (x-axis). Shown is the percentage of AldeRed-positive cells (y-axis) after 24 hours exposure to C99. Murine RALDH1 is sensitive to C99. FIG. 28B: Hepa1-6 cells were treated with different concentrations of C99 in vitro and the number of viable cells were counted at different time points. […] FIG. 28C: C57BL6/J mice were implanted subcutaneously with Hepa1-6 cells and the tumor-bearing mice. To prevent spontaneous rejection of this cell line, mice were treated with anti-CD3. Once the tumors reached around 50 mm^3 size, mice were treated with C86 or C99 (i.p., 20 mg/kg) every day. […] C99, but not C86, suppresses murine HCC growth. Two independent experiments were performed with at least three replicates per experimental group. […]
Cultured Huh7, Huh1, Hepa 1-6, Hep55, and FS (as indicated in figure legends) tumor cells were detached using 0.25% trypsin (Gibco, catalog #25200056), washed once with 1×PBS, and counted before implantation. […] Tumor dimensions were measured using a caliper starting at the day indicated in the accompanying figure legend and every two to three days thereafter; volume was calculated by using formula Length*Width^2/2. […]

human RALDH isozymes = experiment: IC50 on human RALDH isozymes (FIG. 29A); type: biochemical
Hepa 1-6 tumors = Hepa 1-6 tumors in mice; type: in vivo, mouse
Method: FIGS. 28A-28G: C99 inhibits murine RALDH1 and suppresses murine HCC growth. FIG. 28A: AldeRed assay was performed on Hepa1-6 (murine HCC, left graph) and SNU398 (human HCC, right graph) cells with or without different concentration of C99 (x-axis). Shown is the percentage of AldeRed-positive cells (y-axis) after 24 hours exposure to C99. Murine RALDH1 is sensitive to C99. FIG. 28B: Hepa1-6 cells were treated with different concentrations of C99 in vitro and the number of viable cells were counted at different time points. […] FIG. 28C: C57BL6/J mice were implanted subcutaneously with Hepa1-6 cells and the tumor-bearing mice. To prevent spontaneous rejection of this cell line, mice were treated with anti-CD3. Once the tumors reached around 50 mm^3 size, mice were treated with C86 or C99 (i.p., 20 mg/kg) every day. […] C99, but not C86, suppresses murine HCC growth. Two independent experiments were performed with at least three replicates per experimental group. Unpaired t test, two-tailed. FIG. 28D: Tumors in (FIG. 28C) were harvested at endpoint, single-cell suspension generated, and AldeRed assay was performed along with surface staining with immune cell markers. Shown is the percentage of AldeRed-positive cells in nonleukocytes (CD45 negative, mostly tumor cells) under the different treatment conditions. Two independent experiments were performed with at least three replicates per experimental group. Unpaired t test, two-tailed. FIG. 28E: FCS base frequency of Macrophages (F4/80^+ cells) within CD45^+ leukocytes in tumor tissues from experiment outlined in (FIGS. 28C-28D). Two independent experiments were performed with at least three replicates per experimental group. Unpaired t test, two-tailed. FIG. 28F: Hepa1-6 tumor-bearing NU/J mice were treated with chlodronate liposomes (CloLipo) and/or C86/C99. CloLipo treatment suppresses tumor growth and renders tumors insensitive to C99. Two independent experiments were performed with at least three replicates per experimental group. Unpaired t test, two-tailed. FIG. 28G: The murine fibrosarcoma (FS) cell line was implanted subcutaneously into C57BL6/J mice. Mice were treated with 25 mg/kg of C-99 or vehicle everyday starting one day after tumor cell transplantation. *, P<0.05; **, P<0.01; ***, P<0.001; ns, not significant.
Cultured Huh7, Huh1, Hepa 1-6, Hep55, and FS (as indicated in figure legends) tumor cells were detached using 0.25% trypsin (Gibco, catalog #25200056), washed once with 1×PBS, and counted before implantation. 3~6×10^6 tumor cells were implanted subcutaneously (s.c.) into shaved flanks of recipient mice. Tumor dimensions were measured using a caliper starting at the day indicated in the accompanying figure legend and every two to three days thereafter; volume was calculated by using formula Length*Width^2/2. Tumor volumes of 2,000 mm^3, tumor length of 2 cm or tumor ulceration were used as endpoints for survival analyses.
To deplete T cells, 200 μg of mouse CD3-specific antibody (clone 17A2) was administered i.p. starting three days before tumor implantation and repeated every three to four days until mouse sacrifice. To deplete macrophages, 200 μL of clodronate liposome (CloLipo) or PBS-liposome (CtrlLipo) (both Liposoma) was administered i.p. starting three days prior to tumor implantation and repeated every four days until mouse sacrifice. Macrophage depletion efficacy in spleen and within tumors was confirmed by flow cytometry using canonical macrophage marker F4/80. […]

Hepa 1-6 cells = experiment: In vitro proliferation and viability of Hepa 1-6 cells; type: cell-based, mouse; conditions: murine HCC cell line Hepa 1-6
[7] = intravenous administration, 2 mg/kg
[8] = male, CD-1, intravenous administration, 2 mg/kg
[9] = male, CD-1, oral administration, 10 mg/kg

SMILES: CS(=O)(=O)N1CCN(C(=O)c2cnc3ccc(F)cc3c2-c2ccc(C3(C#N)CC3)cc2)CC1 [Compound C-91, 1-(4-(6-fluoro-3-(4-(methylsulfonyl)piperazine-1-carbonyl)quinolin-4-yl)phenyl)cyclopropane-1-carbonitrile]
signs of toxicity [1]: no signs of toxicity have been observed
AldeRed fluorescence ([2]; murine HCC cell line Hepa1-6, 24 hours): no change in AldeRed fluorescence; also recorded: failed to reduce AldeRed fluorescence
transcription of other RALDH isozymes (SNU398 cells [3]): did not lead to compensatory increases in transcription
AUC0-∞ [4, 7]: 1830 ng·h/mL
Cmax [4, 7]: 1997 ng/mL
Vss [4, 7]: 1.4 L/kg
AUC0-∞ ([4]; oral administration, 10 mg/kg): 6980 ng·h/mL
Cmax ([4]; oral administration, 10 mg/kg): 1530 ng/mL
F ([4]; oral administration, 10 mg/kg): 76%
HCC cell growth in vitro (SNU398 cells [5]; SNU398, 1, 10, 100 and 1000 nM): did not inhibit HCC cell growth in vitro
cell death / cell viability in human HCC cell lines (SNU398 cells [5]; live cell counts over 3 days, 7-AAD staining 24 hours): not due to increased cell death or reduced cell viability
RALDH activity, Aldered assay, in HCC cells (SNU398 human HCC cells; FIGS. 7-8): significantly reduced RALDH activity
RALDH activity as detected by Aldered (Aldefluor) assay (SNU398 human HCC cells; SNU398 cells in vitro, 100 nM, DMSO control): abrogated

IC50 relative to C86 (human RALDH isozymes): significantly greater than that of C86
AUC(0-inf) [4, 8]: 37 ng·h/mL
half-life [4, 8]: 6 min
clearance ([4]; male, CD-1, intravenous administration, 2 mg/kg, read-out: CLp): 887 mL/min/kg
Cmax ([4]; male, CD-1, intravenous administration, 2 mg/kg, read-out: Cmax): 117 ng/mL
Vd ([4]; male, CD-1, intravenous administration, 2 mg/kg, read-out: Vss): 2.7 L/kg
AUC(0-inf) [4, 9]: 11 ng·h/mL
half-life [4, 9]: 30 min
Cmax ([4]; male, CD-1, oral administration, 10 mg/kg, read-out: Cmax): 16 ng/mL
F ([4]; oral administration, 10 mg/kg): 6.3%
SMILES: C=CS(=O)(=O)N1CCN(c2c(C(=O)N3CCN(S(C)(=O)=O)CC3)cnc3ccc(F)cc23)CC1 [Compound C-99, (6-fluoro-4-(4-(vinylsulfonyl)piperazin-1-yl)quinolin-3-yl)(4-(methylsulfonyl)piperazin-1-yl)methanone]
fibrosarcoma growth [6]: did not suppress fibrosarcoma growth
sensitivity of TAM-depleted tumors to treatment (Hepa 1-6 tumors; Hepa 1-6, CloLipo-treated): insensitive to C99 treatment
tumor growth in vivo (Hepa 1-6 tumors; Hepa 1-6 in C57BL6/J mice treated with anti-CD3, i.p., 20 mg/kg every day): significantly suppressed tumor growth in vivo
frequency of TAMs within the TME (Hepa 1-6 tumors; Hepa 1-6 tumors at endpoint): reduced
AldeRed activity in tumor cells (Hepa 1-6 tumors; Hepa 1-6 tumors at endpoint, CD45 negative cells): reduced AldeRed activity in tumor cells
RALDH1 activity (AldeRed-positive cells) ([2]; murine HCC cell line, 24 hours exposure): suppressed RALDH1 activity
proliferation or viability in vitro (Hepa 1-6 cells): did not reduce proliferation or viability
concentration range suppressing RALDH1 activity (SNU398 human HCC cells; AldeRed assay, FIG. 28A and FIG. 20A): micromolar
RALDH1 activity (AldeRed-positive cells) (SNU398 human HCC cells; human HCC cell line, 24 hours exposure): suppressed RALDH1 activity
